A melting point compilation (Tetko et al.; mined from patent text by program, amines drawn as free bases though some values may be those of a salt)

Compound | melting point [°C]
COc1ccc(N2CCN(CCC3CN(C)C(=O)O3)CC2)cc1 (stereo not given) | 103 to 104
COc1ccc(CCNC(N)=O)cc1OC1CCCC1 | 136 to 137
COC(=O)c1ccccc1-c1nc(COc2ccc(C=O)cc2OC)c(C)o1 | 129 to 130
Cc1ccc(S(=O)(=O)OC(C)C(=O)N2CCOCC2)cc1 (stereo not given) | 75 to 77
COc1ccc(-c2nc(CNC(C)=O)sc2-c2ccc(OC)cc2)cc1 | 138 to 141
COc1c(Nc2ncc(Cl)c(N[C@@H]3CCCC[C@H]3NS(C)(=O)=O)n2)ccc2c1CCCC(NCCO)C2 (stereo not given in full) | 92 to 94
CCCCN1C(=O)c2cnc(-c3ccccc3)nc2Nc2ccccc21 | 140 to 141
NC(=O)CN1C(=O)[C@@H](NC(=O)c2ccccc2)[C@H](c2ccccc2)Sc2ccccc21 (relative stereo) | 246 to 248
CCCCNC(=O)[C@@H](C[C@H](O)[C@@H](N)CC1CCCC1)C(C)C | 93 to 94
C#CCN1C(=O)c2ccccc2C1OC (stereo not given) | 85 to 87
C[Si](C)(C1C=Cc2c(-c3ccccc3)cccc21)C1C=Cc2c(-c3ccccc3)cccc21 (stereo not given) | 109 to 110
CN1CCCC(C(=O)N2CCC(c3[nH]nc4c3C(=O)c3c(NC(=O)NN5CCOCC5)cccc3-4)CC2)C1 (stereo not given) | 158 to 160
CC(C)(C)[Si](OCCOc1ccc(/C=C/C(=O)O)c(Oc2ncc(C(F)(F)F)cc2Cl)c1)(c1ccccc1)c1ccccc1 | 153
O=C1NCN(c2ccccc2)C12CCN(CCCC1(c3ccc(F)cc3F)OCCO1)CC2 | 58 to 62
COc1ccc(-c2c(C)ncc(C#N)c2Nc2cccc3[nH]ccc23)cc1OC | 182 to 183
O=C1Nc2cccc(NC(=O)c3cccn(-c4ccc(F)cc4)c3=O)c2/C1=C/c1ccc[nH]1 | > 300
O=S(=O)(c1ccc(F)cc1)N1CCOCC1 | 106 to 107
CCOC(=O)C1=C(C(F)(F)F)Nc2n[nH]cc2C1c1ccccc1OC (stereo not given) | 144 to 146
Clc1ccc2c(c1)N(c1ncnc3cc4c(cc13)OCCO4)CC2 | 209 to 211
C/C(=C\c1ccc(O)cc1)c1ccc2c(c1)SC(C)(C)S2 | 123 to 124
CCCCCCCCCCCCNC(=O)c1cc(-c2cccc(C(F)(F)F)c2)c(OCC(=O)O)c(-c2cccc(C(F)(F)F)c2)c1 | 154 to 158

Compound | melting point [°C]
N#Cc1cnn2c1NCCC2 | 206 to 207
COc1ccccc1Cc1nc2n(c1Cc1ccccc1OC)CCS2 | 212 to 213
OC[C@H]1O[C@H]1c1ccsc1 (racemic) | 63 to 65
CC(C)(C)c1cc(Br)c(O)c(C=O)c1Cl | 103 to 105
CCCNC(=O)C(C)Cc1ccc2c(c1)c(Cc1ccc(C(=O)NS(=O)(=O)c3ccccc3C)cc1OC)cn2CC(=O)N(C)C (stereo not given) | 109 to 124
CNC(=O)c1ccc(-c2ccc(NC(=O)NCc3cccnc3)cc2)nc1Nc1ccccc1 | 234 to 236
CCCCCCCCCCOc1ccc(-c2ccc(OCc3ccccc3)c(F)c2)cc1F | 95.8 to 98.6
FC(F)c1nc2ccccc2n1-c1nc(Nc2ccccn2)nc(N2CCOCC2)n1 | 230 to 232
CCCCCCCCCCCCS(=O)(=O)N[C@H]1CCCNC(=O)C1 | 100 to 101
CC(=O)NCc1ccc(C#Cc2ccc3c(c2)C(C)(C)CCC3(C)C)cc1 | 220 to 223
Cn1c(-c2ccc(-c3nccs3)cc2)cnc1[C@H](Cc1ccccn1)N(C=O)c1cc2cc(Cl)ccc2o1 | 144 to 146
N#Cc1coc(CBr)c1 | 40 to 45
Ic1nnnn1-c1ccccc1 | 123 to 129
CCOC(=O)c1ccsc1NC(=O)NC | 83 to 87
O=C(O)Cc1cccc(CNC(=O)C2Cc3ccccc3N2S(=O)(=O)c2ccc(-c3cccc(C(F)(F)F)c3)cc2)c1 (stereo not given) | 80
CCOc1ccc2c(c1)n(C1CCCCC1)c(=O)n2Cc1ccc(NC(=NC#N)NC)cc1OC | 195
CCCn1c(COCC)nc2c(N)nc3cc(OCc4ccccc4)ccc3c21 | 188 to 189
CC(C)(C)OC(=O)NN=C1C2CC3CC(C2)CC1C3 | 175 to 177
COc1cc(-c2nc(NC(=O)c3c(C)c4cc(C)ccc4n3CC(=O)O)sc2CCC2CCCCC2)c(OC)cc1Cl | 151 to 160
Cc1nc2c3c(ccn2c1C)C(OCCO)C(O)C(c1ccccc1)N3 (stereo not given) | 107 to 109
CCOC(=O)/C(=N\OC(C)(CC)C(=O)OC(C)(C)C)c1csc(NC(c2ccccc2)(c2ccccc2)c2ccccc2)n1 (stereo not given) | 122 to 125

Compound | melting point [°C]
CCCCN(CCCC)CCCOc1ccc(-c2cn3cccc(C)c3n2)cc1C | 63 to 66
COC(=O)Nc1nc2ccccc2n1C(=O)NCC1(C)CC(NC(=O)n2c(NC(=O)OC)nc3ccccc32)CC(C)(C)C1 (stereo not given) | 82 to 83
CC(=O)ON1C(C)(C)CC(OC(=O)c2ccc(C(=O)OC3CC(C)(C)N(OC(C)=O)C(C)(C)C3)cc2)CC1(C)C | 206 to 212
CCN(CC)S(=O)(=O)c1cc2c(c(C(=O)NCc3ccccc3)c1)OCCO2 | 125
c1ccc(-c2ncc(-c3ncco3)cn2)cc1 | 175 to 177
CCCCCCCCCCCCCCCCC(Cl)C(=O)O (stereo not given) | 63.5 to 64
CC(=O)c1cccc2c1NCC2 | 83 to 85
Cn1ncnc1COc1nc2c(nnn2-c2ccccc2)c2ccccc12 | 188 to 190
NC(=O)c1ccc(CCN2CC=C(c3c[nH]c(-c4ccc(F)cc4)c3-c3ccncc3)CC2)cc1 | 202 to 204
O=C1CCCc2nc3cc(Cl)ccc3c(NCc3ccccc3)c21 | 141 to 143
O=c1[nH]c(=O)n([C@@H]2CO[C@H](CO)[C@@H](O)C2)cc1I | 219 to 220
Cc1nc([C@@H]2C[C@H]2c2ccc3ccccc3n2)cc(-n2nc(C)nc2C)n1 (relative stereo) | 140 to 141
O=C(O)C1CCc2ccccc2N1C(=O)CSSCC(=O)N1c2ccccc2CCC1C(=O)O (stereo not given) | 172 to 174
CCCCCCCCC=CC(=O)c1c(C)[nH]n(-c2ccccc2)c1=O | 40
O=C(c1ccc(O)cc1)c1nn(C2CCCC2)c2c(C(F)(F)F)cccc12 | 225 to 226
Cn1nnnc1S(=O)CCCCS(=O)(=O)c1nnnn1C (stereo not given) | 147 to 149
CC(=O)c1cccc(NC(=O)C2CCC2)c1 | 155 to 157
C=C(CO)COCCCCCCCCCCCCCCCC | 34
CCOC(=O)Cc1ccc(NC(=O)C(COc2ccccc2)NS(=O)(=O)c2ccc(I)cc2)cc1 (racemic) | 178 to 180
COc1ccc2c(c1)C(c1ccc([N+](=O)[O-])cc1)=Nn1c(C)nnc1C2 | 192 to 194

More lines, now with the values ahead:

melting point [°C] | Compound
198 to 200 | CCOC(=O)COc1ccc(N)c(C)c1
92 to 95 | COC(=O)CCc1nc(C=O)ccc1O
154 | COc1cccc(NC(=O)c2ccn3c2CSC3c2cccnc2)n1 (stereo not given)
160 to 163 | CN(C)S(=O)(=O)c1cc([N+](=O)[O-])ccc1C(=O)O
121 to 123 | CCCc1cc(NC(=O)N2CCN(c3cc(F)cc(F)c3)CC2)c(OC)nc1C
289 to 291 | O=C(O)c1cc(S(=O)(=O)O)c2cccnc2c1O
69 to 70 | CCCc1cc(Cl)c2oc(Cc3ccccc3)c(C)c2c1O
191 to 192 | COc1c(Cl)cc(N=C=S)cc1C(=O)Nc1c(C)cccc1C
137 to 138 | CC(=S)NCC1CN(c2ccc(N3CCC(=CC#N)C(F)C3)c(F)c2)C(=O)O1 (stereo not given)
152 to 154 | CCC(=O)Nc1ccc(C2=NN(C(=O)CC)C(C)Cc3cc4c(cc32)OCO4)cc1 (stereo not given)
181 to 182 | Cc1cc(O)c(C(=O)CCC(=O)O)cc1Cl
138 to 140 | CC(C)(C)OC(=O)CC[C@@H](NC(=O)OCc1ccccc1)C(N)=O
174 to 175 | COc1ccc2c(Cl)c(C(=O)Cl)sc2c1Cl
202 | CCOC(=O)C(C)(C)NC(=O)c1ccc(S(=O)(=O)n2c(=O)n(C3CCCCC3)c3cc(OCC)ccc32)c(OC)c1
170 | COc1cccc(C2(Cl)C(=O)Nc3ccc(Cl)cc32)c1 (stereo not given)
172 to 174 | CN(C)CCCN=C1CC(c2ccc(Cl)cc2Cl)Cc2c1c(=O)c1cc(Cl)ccc1n2O (stereo not given)
52 to 53 | CCOC(=O)CCc1ccc(NC(C)=O)cc1
67 to 70 | Cc1c(C(=O)Cl)cccc1S(=O)(=O)CCCl
209 to 211 | CCOC(=O)c1cn(C2CC2)c2c(C#N)c(F)c(F)cc2c1=O

melting point [°C] | Compound
253 to 254 | COc1ccc(/C=C/c2nc3c(c(=O)n(C)c(=O)n3C)n2C)c(OC)c1C
198 to 201 | CCC(=O)Nc1c(N)cc(Br)cc1OCc1ccccc1
156 to 157 | CCNCC(=O)Nc1cc(NS(C)(=O)=O)c(Oc2ccccc2)cc1[N+](=O)[O-]
192 to 195 | CCCc1cn(-c2cc(=O)n(-c3ccccc3)nc2C#N)nn1
106 to 108 | Cc1nc2ccc(S(=O)(=O)n3c(COC(C)C(=O)O)cc4cc(Cl)ccc43)cc2s1 (stereo not given)
118 to 121 | CCOC(=O)c1ccc(NC(C)=O)cc1C(=O)OCC
118 to 119 | CC(C)(C)CN1C(=O)C2CC2(c2ccc(N)cc2)C1=O (stereo not given)
80 to 83 | C[C@@H]1OC(=O)N(C(=O)O)[C@H]1c1ccc(F)c(F)c1 (relative stereo)
132 | CSc1nn(C(=O)NC(C)c2ccc(Cl)c(Cl)c2)c(=O)n1N (stereo not given)
214 | Cc1ncc2c(c1OCC(=O)O)COC2c1ccc(F)cc1 (stereo not given)
53 to 54 | COc1cc(OC)c(-c2ccccc2)nn1
93 | COC(=O)c1ccc(C2=NOC(P(=O)(OC)OC)C2)cc1 (stereo not given)
152 to 153 | COc1c(C)cc(NC(C)=O)c(Br)c1C
146 to 148 | Nc1cn(-c2cncnc2)nc1Cl
180 | O=C(Nc1ccc2ccc(Cl)nc2n1)c1ccccc1Cl
170 | Cc1nc2c(O)c(C(=O)[C@H](O)[C@@H](O)c3ccccc3)ccc2n1C
192 to 193 | Cc1cccc(C)c1NC(N)=NN
113 to 116 | OCc1csc(=S)n1-c1ccc(F)c(F)c1F
184 to 185 | CC#CC1(C)OC(=O)Nc2ccc(-c3cccc(Cl)c3)cc21 (stereo not given)
